Assay [1] relates to L1210. In words: Antiproliferative activity against mouse L1210 cells after 72 hrs by phosphatase assay. To be noted: L1210, 72 h. Type of assay: functional, cell-based.
The nature of assay [2]: Cytotoxicity against human HCT116/VM46 cells assessed as reduction in cell viability after 72 hrs by phosphatase assay. Type of assay: cell-based. Conditions: HCT-116/VM46, 72 h.
The test system of assay [3] is HCT-116. In words: Antiproliferative activity against human HCT116 cells after 72 hrs by phosphatase assay. It is filed as functional, cell-based. To be noted: HCT-116, 72 h.

As for `CC[C@]1(NC(=O)c2cccc(OC(F)(F)F)c2)C[C@H]2CN(CCc3c([nH]c4ccccc34)[C@@](C(=O)OC)(c3cc4c(cc3OC)N(C)[C@H]3[C@@](O)(C(=O)OC)[C@H](OC(C)=O)[C@]5(CC)C=CCN6CC[C@]43[C@@H]65)C2)C1`, the IC50 in assay [1] was found to be 4.8 nM; in assay [2], 50 nM; in assay [3], 5.9 nM.
In the same order, the values of `CCCCc1ccc(C(=O)N[C@@]2(CC)C[C@H]3CN(CCc4c([nH]c5ccccc45)[C@@](C(=O)OC)(c4cc5c(cc4OC)N(C)[C@H]4[C@@](O)(C(=O)OC)[C@H](OC(C)=O)[C@]6(CC)C=CCN7CC[C@]54[C@@H]76)C3)C2)cc1` are 30 nM, 70 nM and 20 nM.
`CC[C@]1(NC(=O)c2cc3ccccc3s2)C[C@H]2CN(CCc3c([nH]c4ccccc34)[C@@](C(=O)OC)(c3cc4c(cc3OC)N(C)[C@H]3[C@@](O)(C(=O)OC)[C@H](OC(C)=O)[C@]5(CC)C=CCN6CC[C@]43[C@@H]65)C2)C1`: the IC50 amounted to 3.1 nM in assay [1], 9.2 nM in assay [2] and 1.9 nM in assay [3].
On to `CC[C@]1(NC(=O)/C=C/c2ccccn2)C[C@H]2CN(CCc3c([nH]c4ccccc34)[C@@](C(=O)OC)(c3cc4c(cc3OC)N(C)[C@H]3[C@@](O)(C(=O)OC)[C@H](OC(C)=O)[C@]5(CC)C=CCN6CC[C@]43[C@@H]65)C2)C1`, for which the IC50 in assay [1] came to 0.7 nM; in assay [2] it was 25 nM; in assay [3] it was 0.7 nM.
Regarding `CCOc1ccc(C(=O)N[C@@]2(CC)C[C@H]3CN(CCc4c([nH]c5ccccc45)[C@@](C(=O)OC)(c4cc5c(cc4OC)N(C)[C@H]4[C@@](O)(C(=O)OC)[C@H](OC(C)=O)[C@]6(CC)C=CCN7CC[C@]54[C@@H]76)C3)C2)cc1Br`, the IC50 in assay [1] turned out to be 3.9 nM; in assay [2], 50 nM; in assay [3] it was 6.2 nM.
Consider `CC[C@]1(NC(=O)c2ccc3c(c2)OCO3)C[C@H]2CN(CCc3c([nH]c4ccccc34)[C@@](C(=O)OC)(c3cc4c(cc3OC)N(C)[C@H]3[C@@](O)(C(=O)OC)[C@H](OC(C)=O)[C@]5(CC)C=CCN6CC[C@]43[C@@H]65)C2)C1`, for which the IC50 in assay [1] worked out at 0.6 nM; in assay [2], 8.7 nM; in assay [3], 0.8 nM.
As for `CC[C@]1(NC(=O)c2ccc(NC)cc2)C[C@H]2CN(CCc3c([nH]c4ccccc34)[C@@](C(=O)OC)(c3cc4c(cc3OC)N(C)[C@H]3[C@@](O)(C(=O)OC)[C@H](OC(C)=O)[C@]5(CC)C=CCN6CC[C@]43[C@@H]65)C2)C1`, the IC50 in assay [1] was 0.38 nM; in assay [2], 6.2 nM; in assay [3], 0.33 nM.
Consider `CC[C@]1(NC(=O)c2ccc3ccsc3c2)C[C@H]2CN(CCc3c([nH]c4ccccc34)[C@@](C(=O)OC)(c3cc4c(cc3OC)N(C)[C@H]3[C@@](O)(C(=O)OC)[C@H](OC(C)=O)[C@]5(CC)C=CCN6CC[C@]43[C@@H]65)C2)C1`, for which the values for the 50% inhibitory concentration (IC50) in assay [1], in assay [2] and in assay [3] were 3.1 nM, 7.7 nM and 2.9 nM, respectively.
Consider `CC[C@]1(NC(=O)c2ccc3c(c2)CCN3)C[C@H]2CN(CCc3c([nH]c4ccccc34)[C@@](C(=O)OC)(c3cc4c(cc3OC)N(C)[C@H]3[C@@](O)(C(=O)OC)[C@H](OC(C)=O)[C@]5(CC)C=CCN6CC[C@]43[C@@H]65)C2)C1`, for which the figures for the IC50 in assay [1], in assay [2] and in assay [3] were 5.1 nM, 60 nM and 6.7 nM, respectively.
Regarding `CC[C@]1(NC(=O)c2coc3ccccc23)C[C@H]2CN(CCc3c([nH]c4ccccc34)[C@@](C(=O)OC)(c3cc4c(cc3OC)N(C)[C@H]3[C@@](O)(C(=O)OC)[C@H](OC(C)=O)[C@]5(CC)C=CCN6CC[C@]43[C@@H]65)C2)C1`, the half-maximal inhibitory concentration (IC50) in assay [1] was 4 nM; in assay [2], 35 nM; in assay [3], 4.6 nM.
The matching figures for `CC[C@]1(NC(=O)c2ccc(OC)c(OC)c2)C[C@H]2CN(CCc3c([nH]c4ccccc34)[C@@](C(=O)OC)(c3cc4c(cc3OC)N(C)[C@H]3[C@@](O)(C(=O)OC)[C@H](OC(C)=O)[C@]5(CC)C=CCN6CC[C@]43[C@@H]65)C2)C1`: 0.06 nM, 1.4 nM and 0.07 nM.
With `CC[C@]1(NC(=O)c2ccc(C)c(OC)c2)C[C@H]2CN(CCc3c([nH]c4ccccc34)[C@@](C(=O)OC)(c3cc4c(cc3OC)N(C)[C@H]3[C@@](O)(C(=O)OC)[C@H](OC(C)=O)[C@]5(CC)C=CCN6CC[C@]43[C@@H]65)C2)C1`, the IC50 in assay [1] was determined as 4.2 nM; in assay [2], 6.9 nM; in assay [3], 3.3 nM.
Consider `CC[C@]1(NC(=O)c2ccc3ccccc3c2)C[C@H]2CN(CCc3c([nH]c4ccccc34)[C@@](C(=O)OC)(c3cc4c(cc3OC)N(C)[C@H]3[C@@](O)(C(=O)OC)[C@H](OC(C)=O)[C@]5(CC)C=CCN6CC[C@]43[C@@H]65)C2)C1`, for which the results for the IC50 in assay [1], in assay [2] and in assay [3] were 1.9 nM, 6.4 nM and 2.3 nM, respectively.
The matching figures for `CC[C@]1(NC(=O)c2ccc3cc(N)ccc3c2)C[C@H]2CN(CCc3c([nH]c4ccccc34)[C@@](C(=O)OC)(c3cc4c(cc3OC)N(C)[C@H]3[C@@](O)(C(=O)OC)[C@H](OC(C)=O)[C@]5(CC)C=CCN6CC[C@]43[C@@H]65)C2)C1`: 0.7 nM, 7.4 nM and 0.8 nM.
Take `CC[C@]1(NC(=O)c2ccc3c(c2)OCCO3)C[C@H]2CN(CCc3c([nH]c4ccccc34)[C@@](C(=O)OC)(c3cc4c(cc3OC)N(C)[C@H]3[C@@](O)(C(=O)OC)[C@H](OC(C)=O)[C@]5(CC)C=CCN6CC[C@]43[C@@H]65)C2)C1`: the IC50 in assay [1] stood at 0.6 nM; in assay [2] it was 5.3 nM; in assay [3], 0.5 nM.
On to `CCSc1ccc(C(=O)N[C@@]2(CC)C[C@H]3CN(CCc4c([nH]c5ccccc45)[C@@](C(=O)OC)(c4cc5c(cc4OC)N(C)[C@H]4[C@@](O)(C(=O)OC)[C@H](OC(C)=O)[C@]6(CC)C=CCN7CC[C@]54[C@@H]76)C3)C2)cc1`, for which the IC50 is 4.9 nM in assay [1], 35 nM in assay [2] and 6.1 nM in assay [3].
On to `CC[C@]1(NS(=O)(=O)c2cccc([N+](=O)[O-])c2)C[C@H]2CN(CCc3c([nH]c4ccccc34)[C@@](C(=O)OC)(c3cc4c(cc3OC)N(C)[C@H]3[C@@](O)(C(=O)OC)[C@H](OC(C)=O)[C@]5(CC)C=CCN6CC[C@]43[C@@H]65)C2)C1`, for which the values for the IC50 in assay [1], in assay [2] and in assay [3] were 450 nM, 430 nM and 490 nM, respectively.
Regarding `CC[C@]1(NC(=O)c2ccc(C)c(N)c2)C[C@H]2CN(CCc3c([nH]c4ccccc34)[C@@](C(=O)OC)(c3cc4c(cc3OC)N(C)[C@H]3[C@@](O)(C(=O)OC)[C@H](OC(C)=O)[C@]5(CC)C=CCN6CC[C@]43[C@@H]65)C2)C1`, the IC50 was 0.6 nM in assay [1], 25 nM in assay [2] and 0.7 nM in assay [3].
The matching figures for `CC[C@]1(NC(=O)c2ccc(S(=O)(=O)F)cc2)C[C@H]2CN(CCc3c([nH]c4ccccc34)[C@@](C(=O)OC)(c3cc4c(cc3OC)N(C)[C@H]3[C@@](O)(C(=O)OC)[C@H](OC(C)=O)[C@]5(CC)C=CCN6CC[C@]43[C@@H]65)C2)C1`: 20 nM, 310 nM and 30 nM.
On to `CC[C@]1(NC(=O)c2ccnnc2)C[C@H]2CN(CCc3c([nH]c4ccccc34)[C@@](C(=O)OC)(c3cc4c(cc3OC)N(C)[C@H]3[C@@](O)(C(=O)OC)[C@H](OC(C)=O)[C@]5(CC)C=CCN6CC[C@]43[C@@H]65)C2)C1`, for which the results for the IC50 in assay [1], in assay [2] and in assay [3] were 30 nM, 700 nM and 9 nM, respectively.
Turning to `CC[C@]1(NC(=O)c2ccc(OC)c(OC(F)(F)F)c2)C[C@H]2CN(CCc3c([nH]c4ccccc34)[C@@](C(=O)OC)(c3cc4c(cc3OC)N(C)[C@H]3[C@@](O)(C(=O)OC)[C@H](OC(C)=O)[C@]5(CC)C=CCN6CC[C@]43[C@@H]65)C2)C1`, the IC50 in assay [1] was found to be 1.7 nM; in assay [2], 17 nM; in assay [3] it was 2.2 nM.
As to `CC[C@]1(NC(=O)c2ccc(Oc3ccccc3)cc2)C[C@H]2CN(CCc3c([nH]c4ccccc34)[C@@](C(=O)OC)(c3cc4c(cc3OC)N(C)[C@H]3[C@@](O)(C(=O)OC)[C@H](OC(C)=O)[C@]5(CC)C=CCN6CC[C@]43[C@@H]65)C2)C1`, the IC50 amounted to 5.2 nM in assay [1], 50 nM in assay [2] and 6.5 nM in assay [3].
The matching figures for `CC[C@]1(NS(=O)(=O)c2ccc(OC)cc2)C[C@H]2CN(CCc3c([nH]c4ccccc34)[C@@](C(=O)OC)(c3cc4c(cc3OC)N(C)[C@H]3[C@@](O)(C(=O)OC)[C@H](OC(C)=O)[C@]5(CC)C=CCN6CC[C@]43[C@@H]65)C2)C1`: 35 nM, 240 nM and 30 nM.
In the case of `CC[C@]1(NC(=O)c2ccc3ncsc3c2)C[C@H]2CN(CCc3c([nH]c4ccccc34)[C@@](C(=O)OC)(c3cc4c(cc3OC)N(C)[C@H]3[C@@](O)(C(=O)OC)[C@H](OC(C)=O)[C@]5(CC)C=CCN6CC[C@]43[C@@H]65)C2)C1`, the half-inhibitory concentration (IC50) in assay [1] was 0.5 nM; in assay [2], 20 nM; in assay [3] it was 0.6 nM.
The matching figures for `CC[C@]1(NC(=O)c2cnc3ccccc3c2)C[C@H]2CN(CCc3c([nH]c4ccccc34)[C@@](C(=O)OC)(c3cc4c(cc3OC)N(C)[C@H]3[C@@](O)(C(=O)OC)[C@H](OC(C)=O)[C@]5(CC)C=CCN6CC[C@]43[C@@H]65)C2)C1`: 0.7 nM, 5.7 nM and 0.6 nM.
Regarding `CC[C@]1(NC(=O)c2ccc(C3CCCCC3)cc2)C[C@H]2CN(CCc3c([nH]c4ccccc34)[C@@](C(=O)OC)(c3cc4c(cc3OC)N(C)[C@H]3[C@@](O)(C(=O)OC)[C@H](OC(C)=O)[C@]5(CC)C=CCN6CC[C@]43[C@@H]65)C2)C1`, the values for the IC50 in assay [1], in assay [2] and in assay [3] were 40 nM, 60 nM and 30 nM, respectively.

A word on the IC50: it is the concentration that inhibits the measured activity by half.

For the origin of these results see ChEMBL document CHEMBL4017512 (J Med Chem, 2017).
